Results from patent US6291461A, “Stephacidin antitumor antibiotics” (Bristol-Myers Squibb Company, priority 1999, dated 2001).

Assays:
[1] = test system: A2780 ovarian, parental; assay: In vitro cytotoxicity (MTS assay), A2780; type: cell-based; conditions: Homo sapiens, A2780, 72 h
Description: (§1) In vitro cytotoxicity was assessed in human carcinoma cells by the MTS (3-(4,5-dimethylthiazol-2-yl)-5-(3-carboxymethoxyphenyl)-2-(4-sulphenyl)-2H-tetrazolium, inner salt) assay (5). Cells were plated at 4,000 cell/well in 96 well microtiter plates and 24 hours later drugs were added and serial diluted. The cells were incubated at 37° form 72 hours at which time the tetrazolium dye, MTS at 333 μg/ml (final concentration),in combination with the electron coupling agent phenazine methosulfate at 25 μM (final concentration) was added. A dehydrogenase enzyme in live cells reduces the MTS to a form that absorbs light at 492 nm which can be quantitated spectrophotometrically. The greater the absorbance the greater the number of live cells. The results are expressed as an IC50, which is the drug concentration required to inhibit cell proliferation (i.e. absorbance at 492 nm) to 50% of that of untreated control cells.

[2] = test system: A2780/DDP ovarian, mutp53/bcl2+; assay: In vitro cytotoxicity (MTS assay), A2780/DDP; type: cell-based; conditions: Homo sapiens, 72 h
Description: as §1

[3] = test system: A2780/Tax ovarian, Taxol resistant; assay: In vitro cytotoxicity (MTS assay), A2780/Tax; type: cell-based; conditions: Homo sapiens, 72 h
Description: as §1

[4] = test system: PC3 prostate, testosterone independent; assay: In vitro cytotoxicity (MTS assay), PC3; type: cell-based; conditions: Homo sapiens; PC3, 72 h
Description: as §1

[5] = test system: LNCaP prostate, testosterone sensitive; assay: In vitro cytotoxicity (MTS assay), LNCaP; type: cell-based, human; conditions: for IC50: Homo sapiens, LNCaP, 72 h
Description: as §1

[6] = test system: HCT116 colon, parental; assay: In vitro cytotoxicity (MTS assay), HCT116; type: cell-based; conditions: Homo sapiens, HCT-116; HCT116, 72 h
Description: as §1

[7] = test system: HCT116/mdr+ colon, overexpresses Mdr+; assay: In vitro cytotoxicity (MTS assay), HCT116/mdr+; type: cell-based; conditions: Homo sapiens, HCT-116, 72 h
Description: as §1

[8] = test system: HCT116/Topo colon, resistant to etoposide; assay: In vitro cytotoxicity (MTS assay), HCT116/Topo; type: cell-based; conditions: Homo sapiens, HCT-116, 72 h
Description: as §1

[9] = test system: MCF-7 breast, estradiol sensitive; assay: In vitro cytotoxicity (MTS assay), MCF-7; type: cell-based; conditions: Homo sapiens, MCF7; MCF-7, 72 h
Description: as §1

[10] = test system: SKBR3 breast, estradiol-independent; assay: In vitro cytotoxicity (MTS assay), SKBR3; type: cell-based; conditions: Homo sapiens, SK-BR-3; SKBR3, 72 h
Description: as §1

[11] = test system: LX-1 lung, sensitive; assay: In vitro cytotoxicity (MTS assay), LX-1; type: cell-based; conditions: Homo sapiens; LX-1, 72 h
Description: as §1

[12] = test system: LNCaP cells; assay: Apoptosis determination (TUNEL assay), LNCaP; type: cell-based, human; conditions: for % of LNCaP Cells in Apoptosis: 24 h treatment; for induction of apoptosis: testosterone sensitive (LNCaP) cells
Description: (§2) Cells were plated, incubated overnight, treated with compound for 24 hours then harvested by trypsinization. For cell cycle analysis cells were trypsinized, permeated, stained with 50 ug/ml propidium iodide and analyzed by FACS. For apoptosis evaluation (TUNEL assay) cells were permeated and reacted with TdT and fluoresceinated dUTP for 3 hours following the procedure recommended by the APO-Direct kit (Pharmingen).

[13] = test system: A2780 cells; assay: Apoptosis determination (TUNEL assay), A2780; type: cell-based, human; conditions: for % of A2780 Cells in Apoptosis: 24 h treatment; for induction of apoptosis: (A2780)
Description: as §2

[14] = test system: p53, mdr or bcl2; assay: Mechanism of action: mediation by p53, mdr or bcl2; type: cell-based
[15] = test system: tubulin or topoisomerase II; assay: Mechanism of action: tubulin or topoisomerase II
[16] = Solubility; type: physicochemical
[17] = test system: human tumor cell lines; assay: In vitro cytotoxicity against several human tumor cell lines; type: cell-based
Description: as §1

CC1(C)C=Cc2c(ccc3c2[N+]([O-])=C2C(C)(C)C4CC56CCCN5C(=O)C4(NC6=O)C4N5C(=O)C67CCCN6C(=O)C56C(C7)C(C)(C)c5c(c7ccc8c(c7n5O)C=CC(C)(C)O8)C6C234)O1 (stereo not shown) [Stephacidin B]
IC50 [1]: 330 nM
IC50 [2]: 430 nM
IC50 [3]: 260 nM
IC50 [4]: 370 nM
IC50 [5]: 60 nM
selectivity in testosterone dependent LNCaP cells ([5]; LNCaP versus other cell lines): Good selectivity
IC50 [6]: 460 nM
IC50 [7]: 460 nM
IC50 [8]: 420 nM
IC50 [9]: 270 nM
IC50 [10]: 320 nM
IC50 [11]: 380 nM
% of LNCaP Cells in Apoptosis ([12]; 0.1 x 72 hour cytotoxic IC50): 0.02%
% of LNCaP Cells in Apoptosis ([12]; 1 x 72 hour cytotoxic IC50): 0.00%
% of LNCaP Cells in Apoptosis ([12]; 5 x 72 hour cytotoxic IC50): 0.05%
% of LNCaP Cells in Apoptosis ([12]; 10 x 72 hour cytotoxic IC50): 4.52%
% of LNCaP Cells in Apoptosis ([12]; 20 x 72 hour cytotoxic IC50): 11.13%
induction of apoptosis [12]: potent inducers of apoptosis
% of A2780 Cells in Apoptosis ([13]; 0.1 x 72 hour cytotoxic IC50): .5%
% of A2780 Cells in Apoptosis ([13]; 1 x 72 hour cytotoxic IC50): .2%
% of A2780 Cells in Apoptosis ([13]; 5 x 72 hour cytotoxic IC50): 1.0%
% of A2780 Cells in Apoptosis ([13]; 10 x 72 hour cytotoxic IC50): 33%
% of A2780 Cells in Apoptosis ([13]; 20 x 72 hour cytotoxic IC50): 5%
induction of apoptosis [13]: potent inducers of apoptosis
effects mediated by p53, mdr or bcl2 [14]: not mediated by p53, mdr or bcl2
tubulin or topoisomerase II mediated [15]: not tubulin or topoisomerase II mediated
Solubility ([16]; hexane): insoluble
Solubility ([16]; methanol, chloroform, acetone, acetonitrile, dimethyl sulfoxide, acetonitrile/methanol (1:1)): Soluble
Solubility ([16]; water): insoluble

CC1(C)C=Cc2c(ccc3c4c([nH]c23)C(C)(C)C2CC35CCCN3C(=O)C2(C4)NC5=O)O1 (stereo not shown) [Stephacidin A]
IC50 [1]: 4000 nM
IC50 [2]: 6800 nM
IC50 [3]: 3600 nM
IC50 [4]: 2100 nM
IC50 [5]: 1000 nM
IC50 [6]: 2100 nM
IC50 [7]: 6700 nM
IC50 [8]: 13100 nM
IC50 [9]: 4200 nM
IC50 [10]: 2150 nM
IC50 [11]: 4220 nM
in vivo criteria for acceptable activity ([17]; potency judged against applicant's criteria): within our in vivo criteria for acceptable activity
fold less potent ([17]; relative potency in vitro, versus the other stephacidin): 10 fold
in vitro cytotoxicity ([17]; several human tumor cell lines (Table 3)): potent in vitro cytotoxicity
% of LNCaP Cells in Apoptosis ([12]; 0.1 x 72 hour cytotoxic IC50): 0.02%
% of LNCaP Cells in Apoptosis ([12]; 1 x 72 hour cytotoxic IC50): 0.00%
% of LNCaP Cells in Apoptosis ([12]; 5 x 72 hour cytotoxic IC50): 0.15%
% of LNCaP Cells in Apoptosis ([12]; 10 x 72 hour cytotoxic IC50): 5.75%
% of LNCaP Cells in Apoptosis ([12]; 20 x 72 hour cytotoxic IC50): 11.81%
induction of apoptosis [12]: potent inducers of apoptosis
% of A2780 Cells in Apoptosis ([13]; 0.1 x 72 hour cytotoxic IC50): 1%
% of A2780 Cells in Apoptosis ([13]; 1 x 72 hour cytotoxic IC50): .8%
% of A2780 Cells in Apoptosis ([13]; 5 x 72 hour cytotoxic IC50): 21%
% of A2780 Cells in Apoptosis ([13]; 10 x 72 hour cytotoxic IC50): 14%
% of A2780 Cells in Apoptosis ([13]; 20 x 72 hour cytotoxic IC50): 15%
induction of apoptosis [13]: potent inducers of apoptosis
